Source: publication PMC8909834, “An Orally Bioavailable and Highly Efficacious Inhibitor of CDK9/FLT3 for the Treatment of Acute Myeloid Leukemia” (Cancers, 2022)

Assays:
Test in all cases: Kinase Hotspot radiolabel assay
Assay type in all cases: biochemical
Details in all cases: read-out: % Residual Activity
LKB1 = biological target: T1, LKB1 (Homo sapiens, UniProt Q15831)
T1 construct: purchased Reaction Biology Corporation (Kinase HotSpot)
How it was run: (§1)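 Hotspot radioactive kinase assay, compound fixed at 1 µM, broad 369-kinase selectivity screen.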

FLT1/VEGFR1 = biological target: T2, FLT1/VEGFR1 (Homo sapiens, UniProt P17948)
T2 construct: purchased Reaction Biology Corporation (Kinase HotSpot)
T2 sequence (P17948 27-1338): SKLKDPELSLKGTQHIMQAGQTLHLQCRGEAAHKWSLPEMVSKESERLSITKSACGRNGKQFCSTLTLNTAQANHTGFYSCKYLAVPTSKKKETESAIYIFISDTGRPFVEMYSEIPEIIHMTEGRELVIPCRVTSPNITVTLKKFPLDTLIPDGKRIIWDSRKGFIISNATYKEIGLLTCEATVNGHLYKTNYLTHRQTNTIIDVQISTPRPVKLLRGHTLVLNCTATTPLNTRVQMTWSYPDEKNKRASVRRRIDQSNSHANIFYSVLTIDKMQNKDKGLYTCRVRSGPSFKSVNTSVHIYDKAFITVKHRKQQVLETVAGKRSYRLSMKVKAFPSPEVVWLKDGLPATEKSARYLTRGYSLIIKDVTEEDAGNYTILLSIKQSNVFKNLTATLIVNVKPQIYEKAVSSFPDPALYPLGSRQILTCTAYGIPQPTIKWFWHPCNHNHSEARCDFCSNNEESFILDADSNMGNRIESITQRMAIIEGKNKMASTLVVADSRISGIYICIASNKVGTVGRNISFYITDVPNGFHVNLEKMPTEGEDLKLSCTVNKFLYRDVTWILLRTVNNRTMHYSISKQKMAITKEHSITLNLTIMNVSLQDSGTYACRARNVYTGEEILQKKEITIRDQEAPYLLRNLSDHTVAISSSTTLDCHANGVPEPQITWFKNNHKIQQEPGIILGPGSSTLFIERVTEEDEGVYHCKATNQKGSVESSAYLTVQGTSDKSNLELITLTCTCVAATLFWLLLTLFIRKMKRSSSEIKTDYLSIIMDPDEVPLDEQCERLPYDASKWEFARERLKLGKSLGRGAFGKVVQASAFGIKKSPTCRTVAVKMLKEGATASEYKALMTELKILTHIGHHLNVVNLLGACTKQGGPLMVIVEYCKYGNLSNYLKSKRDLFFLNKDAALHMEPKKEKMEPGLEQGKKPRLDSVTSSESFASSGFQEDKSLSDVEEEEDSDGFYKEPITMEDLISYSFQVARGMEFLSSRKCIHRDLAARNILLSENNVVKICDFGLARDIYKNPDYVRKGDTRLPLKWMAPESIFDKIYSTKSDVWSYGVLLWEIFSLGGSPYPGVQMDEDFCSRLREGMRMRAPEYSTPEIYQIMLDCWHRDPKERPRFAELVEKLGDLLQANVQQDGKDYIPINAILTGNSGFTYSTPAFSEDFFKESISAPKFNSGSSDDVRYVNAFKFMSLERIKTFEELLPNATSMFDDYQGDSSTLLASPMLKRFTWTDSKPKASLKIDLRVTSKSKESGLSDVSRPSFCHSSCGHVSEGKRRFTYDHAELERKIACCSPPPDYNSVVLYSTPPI
How it was run: as §1

MKK4 = biological target: T3, MKK4 (Homo sapiens, UniProt P45985)
T3 construct: purchased Reaction Biology Corporation (Kinase HotSpot)
T3 sequence (P45985 whole entry): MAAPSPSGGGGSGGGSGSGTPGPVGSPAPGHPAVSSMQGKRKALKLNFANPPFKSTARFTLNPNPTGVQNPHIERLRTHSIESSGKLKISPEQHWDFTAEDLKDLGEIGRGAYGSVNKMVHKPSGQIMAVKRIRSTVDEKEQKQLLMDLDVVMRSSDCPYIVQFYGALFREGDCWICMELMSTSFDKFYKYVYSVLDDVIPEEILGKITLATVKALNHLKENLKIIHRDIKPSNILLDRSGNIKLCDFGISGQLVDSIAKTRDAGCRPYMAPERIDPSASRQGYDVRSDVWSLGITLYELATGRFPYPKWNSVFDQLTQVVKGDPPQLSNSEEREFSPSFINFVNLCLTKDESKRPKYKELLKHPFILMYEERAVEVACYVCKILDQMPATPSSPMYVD
How it was run: as §1

CK2a = biological target: T4, CK2a (Homo sapiens, UniProt P68400)
T4 construct: purchased Reaction Biology Corporation (Kinase HotSpot)
T4 sequence (P68400 whole entry): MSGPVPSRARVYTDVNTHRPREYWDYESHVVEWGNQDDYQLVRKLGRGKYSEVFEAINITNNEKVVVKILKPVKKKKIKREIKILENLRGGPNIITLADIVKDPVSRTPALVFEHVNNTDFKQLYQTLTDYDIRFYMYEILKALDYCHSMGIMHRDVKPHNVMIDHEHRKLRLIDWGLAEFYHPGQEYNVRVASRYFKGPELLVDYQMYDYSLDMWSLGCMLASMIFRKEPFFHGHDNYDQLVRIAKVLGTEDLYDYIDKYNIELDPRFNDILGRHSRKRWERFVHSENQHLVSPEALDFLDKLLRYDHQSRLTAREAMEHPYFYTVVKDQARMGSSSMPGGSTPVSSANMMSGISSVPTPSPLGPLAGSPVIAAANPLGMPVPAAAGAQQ
How it was run: as §1

ALK2/ACVR1 = biological target: T5, ALK2/ACVR1 (Homo sapiens, UniProt Q04771)
T5 construct: purchased Reaction Biology Corporation (Kinase HotSpot)
How it was run: as §1

PAK5 = biological target: T6, PAK5 (Homo sapiens, UniProt Q9P286)
T6 construct: purchased Reaction Biology Corporation (Kinase HotSpot)
How it was run: as §1

DMPK2 = biological target: T7, DMPK2 (Homo sapiens, UniProt Q6DT37)
T7 construct: purchased Reaction Biology Corporation (Kinase HotSpot)
How it was run: as §1

IRAK4 = biological target: T8, IRAK4 (Homo sapiens, UniProt Q9NWZ3)
T8 construct: purchased Reaction Biology Corporation (Kinase HotSpot)
How it was run: as §1

MEKK6 = biological target: T9, MEKK6 (Homo sapiens, UniProt O95382)
T9 construct: purchased Reaction Biology Corporation (Kinase HotSpot)
How it was run: as §1

IR = biological target: T10, IR (Homo sapiens, UniProt P06213)
T10 construct: purchased Reaction Biology Corporation (Kinase HotSpot)
How it was run: as §1

CDK2/cyclin E = biological target: T11, CDK2/cyclin E (Homo sapiens, UniProt P24941)
T11 construct: purchased Reaction Biology Corporation (Kinase HotSpot)
How it was run: as §1

ERK2/MAPK1 = biological target: T12, ERK2/MAPK1 (Homo sapiens, UniProt P28482)
T12 construct: purchased Reaction Biology Corporation (Kinase HotSpot)
T12 sequence (P28482 whole entry): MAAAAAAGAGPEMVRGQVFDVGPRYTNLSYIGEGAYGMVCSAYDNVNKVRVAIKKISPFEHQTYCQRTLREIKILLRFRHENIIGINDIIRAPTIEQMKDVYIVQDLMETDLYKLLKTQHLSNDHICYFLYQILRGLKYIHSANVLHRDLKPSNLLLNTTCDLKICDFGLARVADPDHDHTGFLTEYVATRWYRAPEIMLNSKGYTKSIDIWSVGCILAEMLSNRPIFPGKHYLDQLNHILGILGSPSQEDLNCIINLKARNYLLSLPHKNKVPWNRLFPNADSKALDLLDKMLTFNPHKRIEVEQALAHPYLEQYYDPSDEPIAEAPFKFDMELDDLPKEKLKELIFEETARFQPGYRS
How it was run: as §1

IRR/INSRR = biological target: T13, IRR/INSRR (Homo sapiens, UniProt P14616)
T13 construct: purchased Reaction Biology Corporation (Kinase HotSpot)
How it was run: as §1

STK16 = biological target: T14, STK16 (Homo sapiens, UniProt O75716)
T14 construct: purchased Reaction Biology Corporation (Kinase HotSpot)
How it was run: as §1

PKA = biological target: T15, PKA (Homo sapiens, UniProt P17612)
T15 construct: purchased Reaction Biology Corporation (Kinase HotSpot)
How it was run: as §1

TIE2/TEK = biological target: T16, TIE2/TEK (Homo sapiens, UniProt Q02763)
T16 construct: purchased Reaction Biology Corporation (Kinase HotSpot)
How it was run: as §1

PKG1a = biological target: T17, PKG1a (Homo sapiens, UniProt Q13976)
T17 construct: purchased Reaction Biology Corporation (Kinase HotSpot)
How it was run: as §1

Aurora B = biological target: T18, Aurora B (Homo sapiens, UniProt Q96GD4)
T18 construct: purchased Reaction Biology Corporation (Kinase HotSpot)
How it was run: as §1

CDK2/cyclin O = biological target: T19, CDK2/cyclin O (Homo sapiens, UniProt P24941)
T19 construct: purchased Reaction Biology Corporation (Kinase HotSpot)
How it was run: as §1

PDGFRa = biological target: T20, PDGFRa (Homo sapiens, UniProt P16234)
T20 construct: purchased Reaction Biology Corporation (Kinase HotSpot)
How it was run: as §1

TGFBR2 = biological target: T21, TGFBR2 (Homo sapiens, UniProt P37173)
T21 construct: purchased Reaction Biology Corporation (Kinase HotSpot)
How it was run: as §1

WNK3 = biological target: T22, WNK3 (Homo sapiens, UniProt Q9BYP7)
T22 construct: purchased Reaction Biology Corporation (Kinase HotSpot)
How it was run: as §1

LCK2/ICK = biological target: T23, LCK2/ICK (Homo sapiens, UniProt Q9UPZ9)
T23 construct: purchased Reaction Biology Corporation (Kinase HotSpot)
How it was run: as §1

SNARK/NUAK2 = biological target: T24, SNARK/NUAK2 (Homo sapiens, UniProt Q9H093)
T24 construct: purchased Reaction Biology Corporation (Kinase HotSpot)
T24 sequence (Q9H093 whole entry): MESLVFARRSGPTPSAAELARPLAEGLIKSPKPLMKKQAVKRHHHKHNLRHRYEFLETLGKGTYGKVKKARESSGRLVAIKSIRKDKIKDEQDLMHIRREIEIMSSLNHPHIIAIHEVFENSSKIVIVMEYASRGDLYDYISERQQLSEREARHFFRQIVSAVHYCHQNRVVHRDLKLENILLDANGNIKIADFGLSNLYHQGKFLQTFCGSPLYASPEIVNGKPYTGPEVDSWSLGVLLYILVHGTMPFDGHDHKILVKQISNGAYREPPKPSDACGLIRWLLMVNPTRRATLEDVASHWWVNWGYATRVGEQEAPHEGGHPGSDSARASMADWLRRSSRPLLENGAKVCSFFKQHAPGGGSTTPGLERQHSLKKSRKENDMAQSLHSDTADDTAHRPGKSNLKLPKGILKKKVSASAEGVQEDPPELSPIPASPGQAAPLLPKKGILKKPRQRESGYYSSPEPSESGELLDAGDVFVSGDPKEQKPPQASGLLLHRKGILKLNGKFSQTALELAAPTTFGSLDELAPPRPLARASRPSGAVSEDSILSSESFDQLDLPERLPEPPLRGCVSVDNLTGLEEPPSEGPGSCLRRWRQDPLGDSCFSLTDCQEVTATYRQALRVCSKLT
How it was run: as §1

RIPK3 = biological target: T25, RIPK3 (Homo sapiens, UniProt Q9Y572)
T25 construct: purchased Reaction Biology Corporation (Kinase HotSpot)
How it was run: as §1

MRCKb/CDC42BPB = biological target: T26, MRCKb/CDC42BPB (Homo sapiens, UniProt Q9Y5S2)
T26 construct: purchased Reaction Biology Corporation (Kinase HotSpot)
T26 sequence (Q9Y5S2 whole entry): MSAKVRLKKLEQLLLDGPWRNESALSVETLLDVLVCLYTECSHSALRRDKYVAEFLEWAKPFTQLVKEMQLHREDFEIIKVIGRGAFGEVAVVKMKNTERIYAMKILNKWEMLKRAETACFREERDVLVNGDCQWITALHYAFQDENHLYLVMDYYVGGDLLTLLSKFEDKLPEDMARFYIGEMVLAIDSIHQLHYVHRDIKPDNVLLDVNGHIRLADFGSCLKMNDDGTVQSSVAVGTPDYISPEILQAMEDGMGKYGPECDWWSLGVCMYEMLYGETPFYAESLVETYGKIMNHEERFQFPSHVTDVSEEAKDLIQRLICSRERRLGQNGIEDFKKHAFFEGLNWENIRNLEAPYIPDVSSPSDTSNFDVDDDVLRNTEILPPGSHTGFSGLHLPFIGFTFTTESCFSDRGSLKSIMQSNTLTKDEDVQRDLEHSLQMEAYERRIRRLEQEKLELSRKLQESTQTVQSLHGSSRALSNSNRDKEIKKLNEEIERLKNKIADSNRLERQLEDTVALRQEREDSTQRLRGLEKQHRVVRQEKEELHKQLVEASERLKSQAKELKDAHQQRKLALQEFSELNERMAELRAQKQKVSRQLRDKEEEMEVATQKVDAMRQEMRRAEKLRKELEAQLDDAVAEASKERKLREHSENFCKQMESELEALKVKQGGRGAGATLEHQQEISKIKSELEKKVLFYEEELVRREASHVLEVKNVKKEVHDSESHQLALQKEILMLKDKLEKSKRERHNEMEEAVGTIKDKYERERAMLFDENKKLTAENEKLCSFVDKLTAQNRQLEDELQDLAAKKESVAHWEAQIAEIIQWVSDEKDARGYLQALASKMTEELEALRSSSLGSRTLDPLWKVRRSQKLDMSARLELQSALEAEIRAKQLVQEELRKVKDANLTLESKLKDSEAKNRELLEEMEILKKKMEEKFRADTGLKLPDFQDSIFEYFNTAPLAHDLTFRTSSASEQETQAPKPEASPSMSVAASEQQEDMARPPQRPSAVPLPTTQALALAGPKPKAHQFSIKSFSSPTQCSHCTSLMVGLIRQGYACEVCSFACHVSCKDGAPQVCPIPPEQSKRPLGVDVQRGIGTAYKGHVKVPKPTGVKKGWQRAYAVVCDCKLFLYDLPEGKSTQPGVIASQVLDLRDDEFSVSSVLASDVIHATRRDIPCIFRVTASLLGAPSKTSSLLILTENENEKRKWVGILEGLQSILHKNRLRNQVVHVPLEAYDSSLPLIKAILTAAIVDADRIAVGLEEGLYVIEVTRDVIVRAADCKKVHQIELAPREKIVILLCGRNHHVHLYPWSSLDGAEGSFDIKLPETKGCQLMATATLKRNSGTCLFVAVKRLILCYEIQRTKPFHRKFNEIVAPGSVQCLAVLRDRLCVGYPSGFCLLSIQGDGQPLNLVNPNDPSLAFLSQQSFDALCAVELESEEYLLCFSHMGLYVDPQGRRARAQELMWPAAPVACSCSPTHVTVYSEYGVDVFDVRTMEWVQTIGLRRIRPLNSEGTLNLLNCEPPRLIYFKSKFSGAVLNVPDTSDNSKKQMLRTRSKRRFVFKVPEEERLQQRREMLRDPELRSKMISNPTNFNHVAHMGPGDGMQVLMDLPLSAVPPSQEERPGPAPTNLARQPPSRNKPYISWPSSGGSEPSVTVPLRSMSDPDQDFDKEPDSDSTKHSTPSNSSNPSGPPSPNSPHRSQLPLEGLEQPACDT
How it was run: as §1

STK39/STLK3 = biological target: T27, STK39/STLK3 (Homo sapiens, UniProt Q9UEW8)
T27 construct: purchased Reaction Biology Corporation (Kinase HotSpot)
How it was run: as §1

RAF1 = biological target: T28, RAF1 (Homo sapiens, UniProt P04049)
T28 construct: purchased Reaction Biology Corporation (Kinase HotSpot)
How it was run: as §1

CDK9/cyclin T1 = biological target: T29, CDK9/cyclin T1 (Homo sapiens, UniProt P50750)
T29 construct: purchased Reaction Biology Corporation (Kinase HotSpot)
How it was run: as §1

LRRK2 = biological target: T30, LRRK2 (Homo sapiens, UniProt Q5S007)
T30 construct: purchased Reaction Biology Corporation (Kinase HotSpot)
How it was run: as §1

For Cc1cnc(N[C@H]2CC[C@H](N)CC2)nc1-c1cnc2ccc(-c3ccccc3)cn12 [CDDD11-8], the remaining activity at 1 µM (LKB1) was 102%, the remaining activity at 1 µM (FLT1/VEGFR1) was 53.4% and the remaining activity at 1 µM (MKK4) was 75.6%. For the same molecule, the remaining activity at 1 µM (CK2a) was 80.3%, the remaining activity at 1 µM (ALK2/ACVR1) was 121% and the remaining activity at 1 µM (PAK5) was 86.2%. For the same molecule, the remaining activity at 1 µM (DMPK2) was 26.3%, the remaining activity at 1 µM (IRAK4) was 59.2% and the remaining activity at 1 µM (MEKK6) was 104%. It also gave a remaining activity at 1 µM (IR) of 101%, a remaining activity at 1 µM (CDK2/cyclin E) of 55.6% and a remaining activity at 1 µM (ERK2/MAPK1) of 109%. The remaining activity at 1 µM (IRR/INSRR) was 101%, the remaining activity at 1 µM (STK16) was 75.2% and the remaining activity at 1 µM (PKA) was 95.3%. For the same molecule, the remaining activity at 1 µM (TIE2/TEK) was 61.2%, the remaining activity at 1 µM (PKG1a) was 61.7% and the remaining activity at 1 µM (Aurora B) was 89.6%. The remaining activity at 1 µM (CDK2/cyclin O) was 56.8%, the remaining activity at 1 µM (PDGFRa) was 49.3% and the remaining activity at 1 µM (TGFBR2) was 95.6%. It also gave a remaining activity at 1 µM (WNK3) of 84%, a remaining activity at 1 µM (LCK2/ICK) of 62.4% and a remaining activity at 1 µM (SNARK/NUAK2) of 45.2%. The remaining activity at 1 µM (RIPK3) was 97.5%, the remaining activity at 1 µM (MRCKb/CDC42BPB) was 79.3% and the remaining activity at 1 µM (STK39/STLK3) was 45.7%. It also gave a remaining activity at 1 µM (RAF1) of 98.1%, a remaining activity at 1 µM (CDK9/cyclin T1) of 18.5% and a remaining activity at 1 µM (LRRK2) of 70.6%.
